# Source: ChEMBL document CHEMBL1201862, “PubChem BioAssay data set” (2004)
#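 Briefly, cells in 96-well plates were exposed to five compound concentrations for 48 h, and endpoints were estimated by linear interpolation. At the GI50, growth is halved.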 Active and inactive are the calls of the source. Cut-off read from the data, not from the text of the source: active = GI50 up to about 1.1 µM and inactive = higher.
# Tests used:
# Test in all cases: NCI tumour cell line growth inhibition, 48 h
# NCI-H23 = tested on: NCI-H23
# SK-MEL-28 = tested on: SK-MEL-28
# U-251 = tested on: U-251
# OVCAR-8 = tested on: OVCAR-8
# SF-295 = tested on: SF-295
# HCT-15 = tested on: HCT-15
# M19-MEL = tested on: M19-MEL
# OVCAR-3 = tested on: OVCAR-3
# CCRF-CEM = tested on: CCRF-CEM
# SK-OV-3 = tested on: SK-OV-3
# HOP-62 = tested on: HOP-62
# 786-0 = tested on: 786-0
# LXFL 529 = tested on: LXFL 529
# SNB-19 = tested on: SNB-19
# NCI-H226 = tested on: NCI-H226
# T47D = tested on: T47D
# PC-3 = tested on: PC-3
# DU-145 = tested on: DU-145
# Hs-578T = tested on: Hs-578T
# NCI/ADR-RES = tested on: NCI/ADR-RES
SMILES,GI50 (NCI-H23),GI50 (SK-MEL-28),GI50 (U-251),GI50 (OVCAR-8),GI50 (SF-295),GI50 (HCT-15) [µM],GI50 (M19-MEL),GI50 (OVCAR-3),GI50 (CCRF-CEM),GI50 (SK-OV-3),GI50 (HOP-62),GI50 (786-0),GI50 (LXFL 529),GI50 (SNB-19),GI50 (NCI-H226),GI50 (T47D),GI50 (PC-3),GI50 (DU-145),GI50 (Hs-578T),GI50 (NCI/ADR-RES)
O=C(Nc1cc(Cl)ccc1Cl)c1cc2cccc(Cl)c2oc1=O,> 100 µM (inactive),> 100 µM (inactive),> 100 µM (inactive),47.1 µM (inactive),> 100 µM (inactive),> 100,> 100 µM (inactive),> 100 µM (inactive),> 100 µM (inactive),> 100 µM (inactive),> 100 µM (inactive),> 100 µM (inactive),–,–,–,–,–,–,–,–
C/C(=N\NS(=O)(=O)c1ccc(C)cc1)c1cc2ccccc2n1C,> 100 µM (inactive),–,63.8 µM (inactive),> 100 µM (inactive),> 100 µM (inactive),> 100,> 100 µM (inactive),–,> 100 µM (inactive),–,> 100 µM (inactive),68.7 µM (inactive),> 100 µM (inactive),69.8 µM (inactive),–,–,–,–,–,–
CCC(=O)CC(=O)CCC(=O)Nc1cc(C)ccc1C,> 100 µM (inactive),> 100 µM (inactive),> 100 µM (inactive),> 100 µM (inactive),> 100 µM (inactive),> 100,–,> 100 µM (inactive),> 100 µM (inactive),> 100 µM (inactive),–,> 100 µM (inactive),> 100 µM (inactive),> 100 µM (inactive),–,–,–,–,–,–
Cc1cc(Cl)ccc1NC(=O)C1C(=O)N(c2ccc(Cl)cc2C)C(=O)/C1=N\NC(N)=S (configuration not stated),19.8 µM (inactive),> 10 µM (inactive),19.6 µM (inactive),41.9 µM (inactive),29.9 µM (inactive),17.1,37.4 µM (inactive),32.8 µM (inactive),22.5 µM (inactive),–,21.3 µM (inactive),32.6 µM (inactive),28.7 µM (inactive),37.3 µM (inactive),–,–,–,–,–,–
COc1cc(/C=N/N=C(\N)NO)ccc1O,57.1 µM (inactive),26 µM (inactive),91.2 µM (inactive),63.7 µM (inactive),26.1 µM (inactive),50,–,–,> 100 µM (inactive),78.7 µM (inactive),–,> 10 µM (inactive),28.6 µM (inactive),> 100 µM (inactive),14.1 µM (inactive),–,–,–,–,–
C=CCCCN1CCCCC1=S,> 100 µM (inactive),> 100 µM (inactive),> 100 µM (inactive),> 100 µM (inactive),> 100 µM (inactive),> 100,> 100 µM (inactive),> 100 µM (inactive),> 100 µM (inactive),63.4 µM (inactive),> 100 µM (inactive),> 100 µM (inactive),–,> 100 µM (inactive),> 100 µM (inactive),–,–,–,–,–
COc1ccc2c(-c3ccc(OCCN(C)C)cc3)c(Oc3ccc(Cl)cc3)c(=O)oc2c1,14.5 µM (inactive),1.82 µM (inactive),3.4 µM (inactive),8.36 µM (inactive),2.12 µM (inactive),3.35,–,6.17 µM (inactive),4.42 µM (inactive),7.4 µM (inactive),4.21 µM (inactive),2.59 µM (inactive),–,8.02 µM (inactive),23.9 µM (inactive),> 20.4 µM (inactive),4.98 µM (inactive),13.7 µM (inactive),6.01 µM (inactive),9.16 µM (inactive)
